Read-outs that look alike come from different tables or passages of the source.

In assay [1] the test system is human breast MDA-MB-231 tumor cell line. Description: Tumor cell growth assay (Cell Titer Glo). As to conditions: read-out: IC50 μM against MDA-MB-231. The class given is cell-based.
The target in another assay is recombinant human PDE5 (Homo sapiens (Human), UniProt O76074). Description: PDE5 inhibition, IMAP fluorescence polarization assay. Type of assay: biochemical. The settings on record: read-out: IC50 μM against PDE5. How it is done:
(§1) Compounds according to the present disclosure were tested for their in vitro ability to inhibit recombinant human PDE5, COX1 and COX2 enzymes at screening doses of 50, 100 and 100 μM respectively.
PDE activity was measured using the IMAP fluorescence polarization assay (Molecular Devices) in which binding of hydrolyzed cyclic nucleotide substrate to immobilized metal coordination complexes increases fluorescence polarization (FP). Tetramethylrhodamine (TAMRA)-cGMP and fluorescein-cAMP were used as substrates, each at final concentration of 50 nmol/L. The PDE assay was done according to the manufacturer's specifications using either whole cell lysates or recombinant enzymes.

The target in the next assay is COX2 (Ovis aries (Sheep), UniProt P79208). Description: COX-2 activity, colorimetric assay. As to conditions: screening dose 100 μM; read-out: IC50 μM against COX2. Type of assay: biochemical, ovine. How it is done:
as §1
(§2) COX-1 and COX-2 activities were measured using purified ovine COX-1 and COX-2 with colorimetric assay kits obtained from Cayman Chemical Co. (Ann Arbor, Mich.). The activities of COX-1 and COX-2 were measured after the addition of arachidonic acid and incubation at 25° C. for 5 min by absorbance at 590 nm as specified by the manufacturer.

In assay [2] the test system is human colorectal HT-29 tumor cell line. Description: Tumor cell growth assay (Cell Titer Glo). The class given is cell-based. The settings on record: read-out: IC50 μM against HT-29.
In another assay the target is COX1 (Ovis aries (Sheep), UniProt P05979). Description: COX-1 activity, colorimetric assay. The settings on record: screening dose 100 μM; read-out: IC50 μM against COX1. The class given is biochemical, ovine. How it is done:
as §1, §2

The mark [3] stands for this setting: recombinant human PDE5, IC50 determined if inhibition >50% at 50 μM screening dose.

Chain of COX2 (P79208 17-603): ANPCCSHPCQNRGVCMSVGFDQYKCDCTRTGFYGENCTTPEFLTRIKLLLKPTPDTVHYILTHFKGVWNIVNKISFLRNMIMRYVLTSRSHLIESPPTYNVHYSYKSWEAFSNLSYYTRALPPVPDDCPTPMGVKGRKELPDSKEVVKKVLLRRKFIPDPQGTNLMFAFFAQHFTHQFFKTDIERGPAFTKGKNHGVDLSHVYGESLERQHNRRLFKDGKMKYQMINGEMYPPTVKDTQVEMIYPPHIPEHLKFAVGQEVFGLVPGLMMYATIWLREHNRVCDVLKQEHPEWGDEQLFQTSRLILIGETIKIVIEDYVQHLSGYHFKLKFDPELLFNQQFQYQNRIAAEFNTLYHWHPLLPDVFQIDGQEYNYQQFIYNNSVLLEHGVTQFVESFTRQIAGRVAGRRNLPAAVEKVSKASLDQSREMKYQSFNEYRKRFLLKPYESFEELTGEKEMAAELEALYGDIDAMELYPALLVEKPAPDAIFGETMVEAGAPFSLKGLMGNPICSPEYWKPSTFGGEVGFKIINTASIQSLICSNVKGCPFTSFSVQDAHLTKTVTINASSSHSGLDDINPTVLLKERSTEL
Chain of COX1 (P05979 25-600): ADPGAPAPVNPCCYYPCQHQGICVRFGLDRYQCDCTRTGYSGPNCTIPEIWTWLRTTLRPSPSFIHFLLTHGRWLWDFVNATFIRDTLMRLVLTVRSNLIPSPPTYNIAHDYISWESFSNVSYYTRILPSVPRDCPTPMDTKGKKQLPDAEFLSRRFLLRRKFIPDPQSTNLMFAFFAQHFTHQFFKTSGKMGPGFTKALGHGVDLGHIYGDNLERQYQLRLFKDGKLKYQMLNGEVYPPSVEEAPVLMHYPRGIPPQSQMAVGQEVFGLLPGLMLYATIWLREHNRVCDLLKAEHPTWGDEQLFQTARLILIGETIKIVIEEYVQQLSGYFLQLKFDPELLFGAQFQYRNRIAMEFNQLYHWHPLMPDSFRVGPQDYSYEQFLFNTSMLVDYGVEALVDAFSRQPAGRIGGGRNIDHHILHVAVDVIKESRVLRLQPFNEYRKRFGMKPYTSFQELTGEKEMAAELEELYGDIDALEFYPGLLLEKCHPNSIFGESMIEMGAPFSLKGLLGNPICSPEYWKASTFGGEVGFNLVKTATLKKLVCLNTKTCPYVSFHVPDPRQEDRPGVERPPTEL

For `CC(C)(C)C1=NN(c2ccc(C(=O)O)cc2)C(c2cccc([N+](=O)[O-])c2)C1` (centres unmarked) [Compound 3, 4-(3-tert-Butyl-5-(3-nitrophenyl)-4,5-dihydro-1H-pyrazol-1-yl)benzoic acid], the half-maximal inhibitory concentration (IC50) in assay [1] (72 hours) was above 50 µM; on recombinant human PDE5 (setting [3]), 3.2 µM; at COX2, above 100 µM; in assay [2] (72 hours), above 50 µM; on COX1 it was above 100 µM.

Turning to `CC(C)(C)C1=NN(c2ccc(C(=O)O)cc2)C(c2ccc([N+](=O)[O-])cc2)C1` (centres unmarked) [Compound 2, 4-(3-tert-Butyl-5-(4-nitrophenyl)-4,5-dihydro-1H-pyrazol-1-yl)benzoic acid], the IC50 in assay [1] (MDA-MB-231, 72 hours) is above 50 µM; on recombinant human PDE5 (setting [3]), 5.7 µM; at COX2, above 100 µM; in assay [2] (HT-29, 72 hours), above 50 µM; on COX1 it was above 100 µM.

Take `Cc1ccc(C2CC(C(C)(C)C)=NN2c2ccc(C(=O)O)cc2)cc1` (centres unmarked) [Compound 23, 4-(3-tert-Butyl-5-p-tolyl-4,5-dihydro-1H-pyrazol-1-yl)benzoic acid]: the IC50 was above 50 µM in assay [1] (MDA-MB-231, 72 hours); 8.4 µM on recombinant human PDE5 (setting [3]); above 100 µM on COX2; above 50 µM in assay [2] (HT-29, 72 hours); above 100 µM at COX1.

With `CC(C)(C)C1=NN(c2cccc(C(=O)O)c2)C(c2ccc(Cl)cc2)C1` (centres unmarked) [Compound 6, 3-(3-tert-Butyl-5-(4-chlorophenyl)-4,5-dihydro-4H-pyrazol-1-yl)benzoic acid], the IC50 was above 50 µM in assay [1] (MDA-MB-231, 72 hours); 9.9 µM on recombinant human PDE5 (setting [3]); above 100 µM on COX2; 39.9 µM in assay [2] (HT-29, 72 hours); above 100 µM on COX1.

As to `CC(C)(C)C1=NN(c2ccc(C(=O)O)cc2)C(c2cccc(Br)c2)C1` (centres unmarked) [Compound 16, 4-(5-(3-Bromophenyl)-3-(tert-butyl)-4,5-dihydro-1H-pyrazol-1-yl)benzoic acid], the IC50 in assay [1] (MDA-MB-231, 72 hours) is above 50 µM; on recombinant human PDE5 (setting [3]) it was 3.1 µM; at COX2 it was above 100 µM; in assay [2] (HT-29, 72 hours), 8.8 µM; at COX1, above 100 µM.

For `CCOc1ccccc1C1CC(C(C)(C)C)=NN1c1ccc(C(=O)O)cc1` (centres unmarked) [Compound 20, 4-(3-(tert-Butyl)-5-(2-ethoxyphenyl)-4,5-dihydro-1H-pyrazol-1-yl)benzoic acid], the IC50 is above 50 µM in assay [1] (72 hours); 2 µM on recombinant human PDE5 (setting [3]); above 100 µM at COX2; 22 µM in assay [2] (72 hours); above 100 µM on COX1.

Take `COc1ccc(C2CC(c3ccc(OC)c(OC)c3)=NN2c2ccc(C(=O)O)cc2)cc1` (centres unmarked) [Compound 10, 4-(3-(3,4-Dimethoxyphenyl)-5-(4-methoxyphenyl)-4,5-dihydro-1H-pyrazol-1-yl)benzoic acid]: the IC50 in assay [1] (MDA-MB-231, 72 hours) is above 50 µM; at recombinant human PDE5 (setting [3]) it was 6.9 µM; at COX2 it was above 100 µM; in assay [2] (HT-29, 72 hours), 42.5 µM; on COX1, above 100 µM.

As to `CC(C)(C)C1=NN(c2ccc(C(=O)O)cc2)C(c2ccc(Br)cc2)C1` (centres unmarked) [Compound 24, 4-(5-(4-Bromophenyl)-3-tert-butyl-4,5-dihydro-1H-pyrazol-1-yl)benzoic acid], the IC50 was above 50 µM in assay [1] (MDA-MB-231, 72 hours); 7.7 µM on recombinant human PDE5 (setting [3]); above 100 µM at COX2; above 50 µM in assay [2] (HT-29, 72 hours); above 100 µM on COX1.

Regarding `CC(C)(C)C1=NN(c2ccc(C(=O)O)cc2)C(c2ccccc2)C1` (centres unmarked) [Compound 22, 4-(3-tert-Butyl-5-phenyl-4,5-dihydro-1H-pyrazol-1-yl)benzoic acid], the IC50 in assay [1] (MDA-MB-231, 72 hours) was above 50 µM; on recombinant human PDE5 (setting [3]) it was 6.22 µM; on COX2, above 100 µM; in assay [2] (HT-29, 72 hours) it was above 50 µM; at COX1, above 100 µM.

`CC(C)(C)C1=NN(c2ccc(C(=O)O)cc2)C(c2cccc(F)c2)C1` (centres unmarked) [Compound 19, 4-(3-(tert-Butyl)-5-(3-fluorophenyl)-4,5-dihydro-1H-pyrazol-1-yl)benzoic acid]: the IC50 is above 50 µM in assay [1] (MDA-MB-231, 72 hours); 2.7 µM on recombinant human PDE5 (setting [3]); above 100 µM on COX2; above 50 µM in assay [2] (HT-29, 72 hours); above 100 µM on COX1.

For `CC(C)(C)C1=NN(c2ccc(C(=O)O)cc2)C(c2ccc(Cl)c(Cl)c2)C1` (centres unmarked) [Compound 13, 4-(3-(tert-Butyl)-5-(3,4-dichlorophenyl)-4,5-dihydro-1H-pyrazol-1-yl)benzoic acid], the IC50 in assay [1] (MDA-MB-231, 72 hours) is above 50 µM; at recombinant human PDE5 (setting [3]), 5.5 µM; on COX2 it was above 100 µM; in assay [2] (HT-29, 72 hours), 25.7 µM; on COX1, above 100 µM.

For `CC(C)(C)C1=NN(c2ccc(S(=O)(=O)O)cc2)C(c2ccc(Cl)cc2)C1` (centres unmarked) [Compound 26, 4-(3-tert-Butyl-5-(4-chlorophenyl)-4,5-dihydro-1H-pyrazol-1-yl)benzenesulfonic acid], the IC50 is above 50 µM in assay [1] (MDA-MB-231, 72 hours); 7.2 µM at recombinant human PDE5 (setting [3]); above 100 µM on COX2; above 50 µM in assay [2] (HT-29, 72 hours); above 100 µM on COX1.

For the molecule `COc1ccc(C2CC(c3ccc(F)cc3)=NN2c2ccc(C(=O)O)cc2)cc1` (centres unmarked) [Compound 27, 4-(3-(4-Fluorophenyl)-5-(4-methoxyphenyl)-4,5-dihydropyrazol-1-yl)benzoic acid], the IC50 was above 50 µM in assay [1] (MDA-MB-231, 72 hours); 3.1 µM at recombinant human PDE5 (setting [3]); above 100 µM at COX2; above 50 µM in assay [2] (HT-29, 72 hours); above 100 µM at COX1.

In the case of `COc1ccc(C2CC(C(C)(C)C)=NN2c2ccc(C(=O)O)cc2)cc1` (centres unmarked) [Compound 1, 4-(3-tert-Butyl-5-(4-methoxyphenyl)-4,5-dihydro-1H-pyrazol-1-yl)benzoic acid], the IC50 in assay [1] (MDA-MB-231, 72 hours) was above 50 µM; at recombinant human PDE5 (setting [3]), 2.02 µM; on COX2, above 100 µM; in assay [2] (HT-29, 72 hours) it was above 50 µM; on COX1, above 100 µM.

`CC(C)(C)C1=NN(c2ccc(C(=O)O)cc2)C(c2ccc(Cl)cc2)C1` (centres unmarked) [Compound 21, 4-(3-tert-Butyl-5-(4-chlorophenyl)-4,5-dihydro-1H-pyrazol-1-yl)benzoic acid]: the IC50 is above 50 µM in assay [1] (MDA-MB-231, 72 hours); 8.7 µM at recombinant human PDE5 (setting [3]); above 100 µM at COX2; above 50 µM in assay [2] (HT-29, 72 hours); above 100 µM at COX1.

On to `COc1ccc(C2CC(c3cccc(OC)c3)=NN2c2ccc(C(=O)O)cc2)cc1` (centres unmarked) [Compound 9, 4-(3-(3-Methoxyphenyl)-5-(4-methoxyphenyl)-4,5-dihydro-1H-pyrazol-1-yl)benzoic acid], for which the IC50 in assay [1] (MDA-MB-231, 72 hours) is 45.6 µM; at recombinant human PDE5 (setting [3]), 1.8 µM; at COX2 it was above 100 µM; in assay [2] (HT-29, 72 hours), 25.9 µM; at COX1 it was above 100 µM.

As to `CC(C)(C)C1=NN(c2ccc(C(=O)O)cc2)C(c2ccccc2F)C1` (centres unmarked) [Compound 18, 4-(3-(tert-Butyl)-5-(2-fluorophenyl)-4,5-dihydro-1H-pyrazol-1-yl)benzoic acid], the IC50 in assay [1] (MDA-MB-231, 72 hours) is above 50 µM; at recombinant human PDE5 (setting [3]), 3.3 µM; at COX2, above 100 µM; in assay [2] (HT-29, 72 hours) it was above 50 µM; at COX1 it was above 100 µM.

For `CC(C)(C)C1=NN(c2ccc(S(=O)(=O)O)cc2)C(c2ccc(F)cc2)C1` (centres unmarked) [Compound 25, 4-(3-tert-Butyl-5-(4-fluorophenyl)-4,5-dihydro-1H-pyrazol-1-yl)benzenesulfonic acid], the IC50 was above 50 µM in assay [1] (MDA-MB-231, 72 hours); 3.3 µM at recombinant human PDE5 (setting [3]); above 100 µM on COX2; above 50 µM in assay [2] (HT-29, 72 hours); above 100 µM on COX1.

Regarding `COc1ccc(C2CC(c3ccccc3)=NN2c2ccc(S(N)(=O)=O)cc2)cc1` (centres unmarked) [Compound 11, 4-(5-(4-Methoxyphenyl)-3-phenyl-4,5-dihydro-1H-pyrazol-1-yl)benzenesulfonamide], the IC50 in assay [1] (MDA-MB-231, 72 hours) was 27.6 µM; at recombinant human PDE5 (setting [3]) it was 3.8 µM; on COX2 it was above 100 µM; in assay [2] (HT-29, 72 hours) it was 15.6 µM; on COX1 it was above 100 µM.

Take `COc1ccc(C2CC(C(C)(C)C)=NN2c2ccc(C(=O)O)cc2)c(OC)c1` (centres unmarked) [Compound 4, 4-(3-tert-Butyl-5-(2,4-dimethoxyphenyl)-4,5-dihydro-1H-pyrazol-1-yl)benzoic acid]: the IC50 in assay [1] (MDA-MB-231, 72 hours) is above 50 µM; at recombinant human PDE5, 23.5 µM; at COX2, above 100 µM; in assay [2] (HT-29, 72 hours) it was above 50 µM; on COX1, above 100 µM.

As to `CC(C)(C)C1=NN(c2ccc(C(=O)O)cc2)C(c2ccccc2Br)C1` (centres unmarked) [Compound 14, 4-(5-(2-Bromophenyl)-3-(tert-butyl)-4,5-dihydro-1H-pyrazol-1-yl)benzoic acid], the IC50 was above 50 µM in assay [1] (MDA-MB-231, 72 hours); 6.9 µM on recombinant human PDE5 (setting [3]); above 100 µM on COX2; 39.6 µM in assay [2] (HT-29, 72 hours); above 100 µM at COX1.

`COc1ccc(C2CC(c3ccccc3)=NN2c2ccc(C(=O)O)cc2)cc1` (centres unmarked) [Compound 7, 4-(5-(4-Methoxyphenyl)-3-phenyl-4,5-dihydro-1H-pyrazol-1-yl)benzoic acid]: the IC50 in assay [1] (MDA-MB-231, 72 hours) was 48 µM; on recombinant human PDE5 (setting [3]) it was 1.2 µM; at COX2 it was above 100 µM; in assay [2] (HT-29, 72 hours), 36.7 µM; at COX1 it was above 100 µM.
